The text below walks through data of article PMC10791743, “Selective CK1α degraders exert antiproliferative activity against a broad range of human cancer cell lines” (Nature Communications, 2024).

“And” between values parts separate entries of the source, which are not always exact repeats. Identical values can stand only once.

For series [1], the system named is MDR1 (P-gp). Description: MDCKII-MDR1 cell-based permeability assay. In kind it is in vitro ADME. The note with it: dog, MDCK-MDR1, pH 7.4. The protocol:
(§1) page 30: ADME Methods Aqueous solubility assay: Solubility assays were conducted using a Biomek FX lab automation workstation (Beckman Coulter, Inc., Fullerton, CA) and μSOL Evolution software (pION Inc., Woburn, MA). In a 96-well microplate (Cat. No: 3363, Corning Incorporated, Salt Lake, UT), 10 μL of a 10 mM test compound stock in DMSO was added to 190 μL 1-propanol (Thermo Scientific, spectroscopy, Cat. No: 434360010, Fair Lawn, NJ) to create a reference stock plate. From this reference stock plate, 5 μL solutions were mixed with 70 μL 1-propanol and 75 μL Dulbecco's Phosphate Buffered Saline (DPBS, 1X, GibcoTM, Cat. No: 14190-144, Thermo Fisher Scientifics, Waltham, MA) to generate the reference plate (high sensitivity UV plate, Cat. No: 110286, pION Inc., Woburn, MA). In a 96-well storage plate (Cat. No: 201276-100, Agilent, Santa Clara, CA), 6 μL of a 10 mM test compound stock was added to 600 μL buffer, mixed, sealed, and incubated at room temperature for 18 hours. Following incubation, the suspension was filtered through a 96-well filter plate (PVDF, 0.2 μM, Cat. No: 110037, pION Inc., Woburn, MA). The filtrate (75 μL) was combined with 75 μL 1-propanol to create the sample plate. UV spectra of the reference and sample plates were then read, and calculations based on the area under the curve (AUC) of the UV spectra were performed using μSOL Evolution software. All compounds were tested in triplicate wells. MDCKII-MDR1 cell-based permeability assay: High-throughput […]1 permeability assay was performed in the Transwell® 0.4 μm polycarbonate membrane 96-well system with modified methods1,2, […]1 cells were maintained at 37 °C in a humidified incubator with an atmosphere of 5% CO2. The cells were cultured in 75 cm2 flasks with Eagle's Minimum Essential Medium (EMEM) containing 10% fetal bovine serum (FBS), 1% non-essential amino acids (NEAA), 100 units/mL of penicillin, and 100 μg/mL of streptomycin. The […]1 cells were seeded onto inserts at a density of 1×10^4 cells/insert separately. The medium in the wells was changed every other day, and the trans epithelial electrical resistance (TEER) value was measured page 31: using a REMS Autosampler (World Precision Instruments, Sarasota, […]1 cells were grown for 5 days to reach a consistent confluency level monitored by epithelial voltohmmeter to confirm the intactness of the confluent polarized monolayer. For transport experiments, each cultured monolayer on the 96-well plate was washed twice with a transport buffer (HBSS/25 mM […] The cell-based permeability assay was initiated by the addition of each compound solution (10 μmol/L) into inserts (apical side, A) or receivers (basolateral side, B). After incubated […] (if basal to apical permeability), and concentrations were assessed by UPLC/MS (Waters; Milford, MA). All compounds were tested in triplicates. The A→B (or B→A) apparent permeability coefficients (Papp) of each compound were calculated using the equation (3): […], where dQ/dt equals the flux of a drug across the monolayer, the parameters of A equals the surface area of total insert well, and C0 is the initial concentration of substrate in the donor compartment. The efflux ratio was determined by dividing the Papp in the B-A direction by the Papp in the A-B direction. […] NADPH regenerating agent solutions A and B (Corning GentestTM, Cat. No: 451220) were purchased from Discovery Labware (Woburn, MA). Mouse liver microsomes (CD-1, pooled, GibcoTM, Cat. No: MSMCPL) were obtained from Thermo Fisher Scientific (Fredrick, MD). Pooled human liver microsomes (mixed gender, Cat. No: E0630) were purchased from XenoTech (Lenexa, KS). Stock solutions of test compounds were prepared at 10 mM in DMSO. Sample preparation for microsomal stability was modified from Di's publications3,4. […] and 4 hours) by Labcyte Echo 650 acoustic dispenser (Beckman Coulter Life Sciences, Indianapolis, IN). All compounds were tested in triplicate per time point. […]

Series [2] has as its system MDCKII-MDR1 cells. Description: MDCKII-MDR1 cell-based permeability assay. In kind it is in vitro ADME. The protocol:
as §1

For the compound `O=C1CCC(N2Cc3cc(Nc4noc5ccccc45)ccc3C2=O)C(=O)N1` (stereo not drawn) [SJ3149], in series [1] (apical to basolateral, read-out: MDCK-MDR1 AB), the Papp A→B at 1 h, 10 μmol/L worked out at 27.7 ×10⁻⁶ cm/s. In addition, the Papp B→A at 1 h, 10 μmol/L in series [1] (basolateral to apical, read-out: MDCK-MDR1 BA) came out at 36.5 ×10⁻⁶ cm/s.

`O=C1CCC(N2Cc3cc(Nc4noc5ccccc45)ccc3C2=O)C(=O)N1` (stereo not drawn) [SJ001043149-1]: in series [2] (A2B), the “Papp (*10^6 cm/s), A2B, single replicate” value is 35.9761 *10^6 cm/s and 11.2244 *10^6 cm/s and 35.8135 *10^6 cm/s; the “Papp (nm/s), A2B, single replicate” value is 359.761 nm/s and 112.244 nm/s and 358.135 nm/s. In series [2] (A2B, average of 3), the “AVG Papp A 2 B” value came to 276.713 nm/s. Moreover, in series [2] (B2A), the “Papp (*10^6 cm/s), B2A, single replicate” value is 44.7992 *10^6 cm/s and 31.6544 *10^6 cm/s and 32.9997 *10^6 cm/s; the “Papp (nm/s), B2A, single replicate” value is 447.992 nm/s and 316.544 nm/s and 329.997 nm/s. Further, in series [2] (B2A / A2B), the “Efflux Ratio” value turned out to be 1.318. For the same compound, the “AVG Papp B 2 A” value in series [2] (B2A, average of 3) was 364.845 nm/s.
